Laboratory results reported in patent publication US12186283B2, “Bismuth-thiol compositions and methods of use” (Microbion Corporation, priority 2018, dated 2025).
Converted amounts (≈) assume the structure as drawn. Like-named read-outs stand apart in the source and are kept apart here.

What was measured:
[1] = system: Burkholderia cepacia complex; assay: Checkerboard FIC assay, BisEDT with CF agents (Example 10); assay type: cell-based, Burkholderia spp.; conditions: B. cenocepacia isolate 0548; agent alone, as observed during FIC testing
[2] = system: P. aeruginosa; conditions: P. aeruginosa isolate 103, CLSI QC range in parenthesis, cited from earlier work
[3] = system: Pseudomonas aeruginosa; conditions: P. aeruginosa ATCC 27853, QC organism; cited from earlier work
[4] = system: P. aeruginosa; assay: Broth microdilution MIC (Example 10)
[5] = system: Burkholderia cepacia complex; assay: Broth microdilution MIC (Example 10); conditions: initial MIC testing
[6] = system: Escherichia coli; assay: Broth microdilution MIC (Example 12)
[7] = system: Klebsiella pneumoniae; assay: Broth microdilution MIC (Example 12)
[8] = system: Pseudomonas aeruginosa; assay: Broth microdilution MIC (Example 12)
[9] = system: Acinetobacter baumannii; assay: Broth microdilution MIC (Example 12)

NCC[C@H](O)C(=O)N[C@@H]1C[C@H](N)[C@@H](O[C@H]2O[C@H](CN)[C@@H](O)[C@H](O)[C@H]2O)[C@H](O)[C@H]1O[C@H]1O[C@H](CO)[C@@H](O)[C@H](N)[C@H]1O [AMK]
MIC [1]: […] | MIC, CLSI QC range ([2]; Table 24): (1-4) μg/mL | MIC, CLSI QC range ([2]; Table 26): (1-4) μg/mL | MIC, QC range [3]: (1-4) μg/mL | MIC ([4]; P. aeruginosa isolate 103 (ATCC 25922), QC strain, initial MIC testing): 2 µg/mL (≈ 3.42 µM) | MIC ([4]; P. aeruginosa isolate 103 (ATCC 25922), during FIC testing, each agent tested alone for QC, one replicate): 4 µg/mL | MIC ([4]; P. aeruginosa isolate 1497 (TOB-R, AMK-R, CIP-I, AZT-R, COL-R), initial MIC testing): 64 µg/mL (≈ 109 µM) | MIC ([4]; P. aeruginosa isolate 1530 (TOB-R, AMK-R, CIP-R), initial MIC testing): 64 µg/mL (≈ 109 µM) | MIC ([4]; P. aeruginosa isolate 1553 (TOB-R, AMK-R, CIP-R), initial MIC testing): 64 µg/mL (≈ 109 µM) | MIC ([4]; P. aeruginosa isolate 6322 (MEM-R, TOB-R, AMK-R, CIP-R, AZT-R), initial MIC testing): 64 µg/mL (≈ 109 µM) | MIC ([4]; P. aeruginosa isolate 6977 (MEM-I, TOB-R, CIP-R, AZT-I), initial MIC testing): 16 µg/mL (≈ 27.3 µM) | MIC ([4]; P. aeruginosa isolate 7745 (MEM-R, CIP-R, AZT-R), initial MIC testing): 4 µg/mL (≈ 6.83 µM) | MIC ([4]; P. aeruginosa isolate 7754 (MEM-R, TOB-R, CIP-R, AZT-I), initial MIC testing): 8 µg/mL (≈ 13.7 µM) | MIC ([4]; P. aeruginosa isolate 7762 (MEM-I, CIP-I), initial MIC testing): 8 µg/mL (≈ 13.7 µM) | MIC ([4]; P. aeruginosa isolate 7871 (MEM-R, AZT-I), initial MIC testing): 2 µg/mL (≈ 3.42 µM) | MIC ([4]; P. aeruginosa isolate 7874, initial MIC testing): 2 µg/mL (≈ 3.42 µM) | MIC ([4]; P. aeruginosa isolate 7886 (MEM-R, CIP-R, AZT-R), initial MIC testing): 8 µg/mL (≈ 13.7 µM) | MIC ([4]; P. aeruginosa isolate 8797 (MEM-R, TOB-R, AMK-R, CIP-R, AZT-R, COL-R), initial MIC testing): >256 µg/mL | MIC ([4]; P. aeruginosa isolate 8798 (MEM-R, TOB-R, AMK-R, CIP-R, AZT-R, COL-R), initial MIC testing): […] | MIC ([4]; P. aeruginosa isolate 9108 (CIP-R, AZT-I), initial MIC testing): 4 µg/mL (≈ 6.83 µM) | MIC ([5]; B. cenocepacia isolate 0548 (CIP-R)): 256 µg/mL (≈ 437 µM) | MIC ([5]; B. cenocepacia isolate 1631): 256 µg/mL (≈ 437 µM) | MIC ([5]; B. cenocepacia isolate 1783): 256 µg/mL (≈ 437 µM) | MIC ([5]; B. cenocepacia isolate 8555): 256 µg/mL (≈ 437 µM) | MIC ([5]; B. cepacia isolate 0546): 64 µg/mL (≈ 109 µM) | MIC ([5]; B. cepacia isolate 1793): 64 µg/mL (≈ 109 µM) | MIC ([5]; B. cepacia isolate 9040): 8 µg/mL (≈ 13.7 µM) | MIC ([5]; B. multivorans isolate 5665 (CIP-I)): 256 µg/mL (≈ 437 µM) | MIC ([6]; E. coli ATCC 25922, QC organism): 1 µg/mL (≈ 1.71 µM) | MIC ([6]; E. coli ATCC 35218, QC organism): 1 µg/mL (≈ 1.71 µM) | MIC ([6]; Escherichia coli ATCC 35218, ESBL): 1 µg/mL (≈ 1.71 µM) | MIC ([6]; Escherichia coli ATCC BAA-2471, NDM): 64 µg/mL (≈ 109 µM) | MIC ([6]; Escherichia coli CDC 114, ESBL/KPC): 1 µg/mL (≈ 1.71 µM) | MIC ([6]; Escherichia coli CDC 118, ESBL/NDM): >64 µg/mL | MIC ([6]; Escherichia coli CDC 435, NDM): >64 µg/mL | MIC ([6]; Escherichia coli CDC 451, KPC): 4 µg/mL (≈ 6.83 µM) | MIC ([6]; Escherichia coli CDC 503, ESBL/NDM): >64 µg/mL | MIC ([6]; Escherichia coli MMX 5745, KPC): 0.5 µg/mL (≈ 0.854 µM) | MIC ([6]; Escherichia coli MMX 5755, ESBL): 16 µg/mL (≈ 27.3 µM) | MIC ([6]; Escherichia coli MMX 5756, ESBL): 64 µg/mL (≈ 109 µM) | MIC ([6]; Escherichia coli MMX 5758, ESBL): 1 µg/mL (≈ 1.71 µM) | MIC ([7]; K. pneumoniae ATCC BAA-1705, QC organism): 16 µg/mL (≈ 27.3 µM) | MIC ([7]; Klebsiella pneumoniae ATCC BAA-1705, ESBL/KPC): 16 µg/mL (≈ 27.3 µM) | MIC ([7]; Klebsiella pneumoniae CDC 112, KPC): 16 µg/mL (≈ 27.3 µM) | MIC ([7]; Klebsiella pneumoniae CDC 113, ESBL/KPC): 16 µg/mL (≈ 27.3 µM) | MIC ([7]; Klebsiella pneumoniae CDC 115, ESBL/KPC): 0.5 µg/mL (≈ 0.854 µM) | MIC ([7]; Klebsiella pneumoniae CDC 120, ESBL/KPC): 16 µg/mL (≈ 27.3 µM) | MIC ([7]; Klebsiella pneumoniae CDC 126, ESBL/KPC): 2 µg/mL (≈ 3.42 µM) | MIC ([7]; Klebsiella pneumoniae CDC 129, ESBL/KPC): […] | MIC ([7]; Klebsiella pneumoniae CDC 135, ESBL/VIM): 16 µg/mL (≈ 27.3 µM) | MIC ([7]; Klebsiella pneumoniae CDC 138, ESBL/NDM): >64 µg/mL | MIC ([7]; Klebsiella pneumoniae CDC 158, ESBL/NDM/OXA): 2 µg/mL (≈ 3.42 µM) | MIC ([7]; Klebsiella pneumoniae MMX 9029, ESBL): 0.5 µg/mL (≈ 0.854 µM) | MIC ([8]; P. aeruginosa ATCC 27853, QC organism): 2 µg/mL (≈ 3.42 µM) | MIC ([8]; Pseudomonas aeruginosa CDC 230, VIM/OXA): >64 µg/mL | MIC ([8]; Pseudomonas aeruginosa CDC 231, KPC/OXA): 8 µg/mL (≈ 13.7 µM) | MIC ([8]; Pseudomonas aeruginosa CDC 241, IMP/OXA): […] | MIC ([8]; Pseudomonas aeruginosa CDC 246, NDM/OXA): >64 µg/mL | MIC ([8]; Pseudomonas aeruginosa CDC 250, NDM/OXA): >64 µg/mL | MIC ([8]; Pseudomonas aeruginosa CDC 356, KPC): 2 µg/mL (≈ 3.42 µM) | MIC ([8]; Pseudomonas aeruginosa CDC 439, IMP): >64 µg/mL | MIC ([8]; Pseudomonas aeruginosa CDC 444, VIM): >64 µg/mL | MIC ([8]; Pseudomonas aeruginosa CDC 457, VIM): 2 µg/mL (≈ 3.42 µM) | MIC ([8]; Pseudomonas aeruginosa CDC 516, KPC/AmpC): 2 µg/mL (≈ 3.42 µM) | MIC ([8]; Pseudomonas aeruginosa CDC 518, KPC/AmpC): 16 µg/mL (≈ 27.3 µM) | MIC ([9]; Acinetobacter baumannii CDC 273, ESBL/OXA): >64 µg/mL | MIC ([9]; Acinetobacter baumannii CDC 274, ESBL/OXA): 16 µg/mL (≈ 27.3 µM) | MIC ([9]; Acinetobacter baumannii CDC 275, ESBL/OXA): >64 µg/mL | MIC ([9]; Acinetobacter baumannii CDC 277, ESBL/OXA): 16 µg/mL (≈ 27.3 µM) | MIC ([9]; Acinetobacter baumannii CDC 284, ESBL/OXA): […] | MIC ([9]; Acinetobacter baumannii CDC 307, OXA): >64 µg/mL | MIC ([9]; Acinetobacter baumannii CDC 308, ESBL/OXA): >64 µg/mL | MIC ([9]; Acinetobacter baumannii CDC 311, OXA): >64 µg/mL | MIC ([9]; Acinetobacter baumannii CDC 312, OXA): 1 µg/mL (≈ 1.71 µM) | MIC ([9]; Acinetobacter baumannii CDC 313, ESBL/OXA): 4 µg/mL (≈ 6.83 µM) | MIC ([9]; Acinetobacter baumannii NCTC 13304, OXA): 0.5 µg/mL (≈ 0.854 µM)
